Reference: patent US20240261367A1, “CYCLIC PEPTIDE IMMUNOMODULATORS” (priority 2021, published 2024)

Target: T1, PD-1/PD-L1 (Homo sapiens, UniProt Q9NZQ7)
T1 construct: TVMV protease site linker (C); made in house; host or cells: HEK293T cells
Assay: PD-1/PD-L1 Homogenous Time-Resolved Fluorescence (HTRF) binding assay
Details: PD-L1-His (10 nM) pre-incubated with inhibitor 15 m, then PD-1-Ig (20 nM)
Text: Methods for Testing the Ability of Macrocyclic Peptides to Compete for the Binding of PD-1 to PD-L1 Using Homogenous Time-Resolved Fluorescence (HTRF) Binding Assays
The ability of the compounds of formula (I) to bind to PD-L1 was investigated using a PD-1/PD-L1 Homogenous Time-Resolved Fluorescence (HTRF) binding assay.
Homogenous Time-Resolved Fluorescence (HTRF) Binding Assay
The interaction of PD-1 and PD-L1 can be assessed using soluble, purified preparations of the extracellular domains of the two proteins. The PD-1 and PD-L1 protein extracellular domains were expressed as fusion proteins with detection tags, for PD-1, the tag was the Fc portion of Immunoglobulin (PD-1-Ig) and for PD-L1 it was the 6 histidine motif (PD-L1-His). All binding studies were performed in an HTRF assay buffer consisting of dPBS supplemented with 0.1% […] bovine serum albumin and 0.05% (v/v) Tween-20. […] HTRF detection was achieved using europium crypate-labeled anti-Ig (1 nM final) and allophycocyanin (APC) labeled anti-His (20 nM final). Antibodies were diluted in HTRF detection buffer and 5 μl was dispensed on top of the binding reaction. The reaction mixture was allowed to equilibrate for 30 minutes and the resulting signal (665 nm/620 nm ratio) was obtained using an EnVision fluorometer. Additional binding assays were established between the human proteins PD-1-Ig/PD-L2-His (20 & 5 nM, respectively) and CD80-His/PD-L1-Ig (100 & 10 nM, respectively).
Recombinant Proteins: Human PD-1 (25-167) with a C-terminal human Fc domain of immunoglobulin G (Ig) epitope tag [hPD-1 (25-167)-3S-IG] and human PD-L1 (18-239) with a C-terminal His epitope tag [hPD-L1(18-239)-TVMV-His] were expressed in HEK293T cells and purified sequentially by ProteinA affinity chromatography and size exclusion chromatography. Human PD-L2-His and CD80-His was obtained through commercial sources.
Table 1 lists the IC50 values for representative examples of this disclosure measured in the PD-1/PD-L1 Homogenous Time-Resolved Fluorescence (HTRF) binding assay.

T1 sequence (Q9NZQ7 18-239): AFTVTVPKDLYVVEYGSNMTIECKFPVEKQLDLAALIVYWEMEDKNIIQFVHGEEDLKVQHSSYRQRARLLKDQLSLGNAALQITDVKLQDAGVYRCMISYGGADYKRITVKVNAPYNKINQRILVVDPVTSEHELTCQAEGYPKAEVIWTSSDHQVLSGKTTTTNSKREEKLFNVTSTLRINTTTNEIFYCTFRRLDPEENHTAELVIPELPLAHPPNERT

Row | IC50 [nM] | SMILES
1 | 2.9 | CCCC[C@H]1C(=O)N(C)[C@@H](CCCC)C(=O)N[C@@H](CC(C)C)C(=O)N[C@H](C(=O)NCC(=O)N[C@@H](Cc2cn(CCOCCOCCOCCOCCOCCOCCOCCOCCOCCOCCOCCNC(=O)CC[C@H](NC(=O)CCCCCCCCCCCCCCCCC(=O)O)C(=O)OC)nn2)C(=O)O)CSCC(=O)N[C@@H](Cc2ccc(O)cc2)C(=O)N(C)[C@@H](C)C(=O)N[C@@H](CC(N)=O)C(=O)N2CCC[C@H]2C(=O)N[C@@H](CN)C(=O)N[C@@H](CC(C)C)C(=O)N2C[C@H](O)C[C@H]2C(=O)N[C@@H](Cc2c[nH]c3ccccc23)C(=O)N[C@@H](CCN)C(=O)N[C@@H](CC2=CC(CC(=O)O)c3ccccc32)C(=O)N1C (some centres unmarked) [Example 1026]
2 | 0.58 | CCCC[C@H]1C(=O)N(C)[C@@H](CCCC)C(=O)N[C@@H](CC(C)C)C(=O)N[C@H](C(=O)NCC(=O)N[C@@H](Cc2cn(CCOCCOCCOCCOCCOCCOCCOCCOCCOCCOCCOCCNC(=O)CC[C@H](NC(=O)CCCCCCCCCCCCCCCCC(=O)O)C(=O)O)nn2)C(=O)O)CSCC(=O)N[C@@H](Cc2ccc(O)cc2)C(=O)N(C)[C@@H](C)C(=O)N[C@@H](CC(N)=O)C(=O)N2CCC[C@H]2C(=O)N[C@@H](CN)C(=O)N[C@@H](CC(C)C)C(=O)N2C[C@H](O)C[C@H]2C(=O)N[C@@H](Cc2c[nH]c3ccccc23)C(=O)N[C@@H](CCNC(=O)OC)C(=O)N[C@@H](Cc2cn(CC(=O)O)c3ccccc23)C(=O)N1C [Example 5001]
3 | 13 | CCCC[C@H]1C(=O)N(C)[C@@H](CCCC)C(=O)N[C@@H](CC(C)C)C(=O)N[C@H](C(=O)NCC(=O)N[C@@H](Cc2cn(CCOCCOCCOCCOCCOCCOCCOCCOCCOCCOCCOCCNC(=O)CC[C@H](NC(=O)CCCCCCCCCCCCCCCCC(=O)O)C(=O)O)nn2)C(=O)O)CSCC(=O)N[C@@H](Cc2ccc(O)cc2)C(=O)N(C)[C@@H](C)C(=O)N[C@@H](CC(N)=O)C(=O)N2CCC[C@H]2C(=O)N[C@@H](CNC(=O)OC)C(=O)N[C@@H](CC(C)C)C(=O)N2C[C@H](O)C[C@H]2C(=O)N[C@@H](Cc2c[nH]c3ccccc23)C(=O)N[C@@H](CCN)C(=O)N[C@@H](CC2=CC(CC(=O)O)c3ccccc32)C(=O)N1C (some centres unmarked) [Example 1016]
4 | 9.1 | CCCC[C@H]1C(=O)N(C)[C@@H](CCCC)C(=O)N[C@@H](CC(C)C)C(=O)N[C@H](C(=O)NCC(=O)N[C@@H](Cc2cn(CCOCCOCCOCCOCCOCCOCCOCCOCCOCCOCCOCCNC(=O)CC[C@H](NC(=O)CCCCCCCCCCCCCCCCC(=O)O)C(=O)O)nn2)C(=O)O)CSCC(=O)N[C@@H](Cc2ccc(O)cc2)C(=O)N(C)[C@@H](C)C(=O)N[C@@H](CC(N)=O)C(=O)N2CCC[C@H]2C(=O)N[C@@H](CNC(=O)OC(C)C)C(=O)N[C@@H](CC(C)C)C(=O)N2C[C@H](O)C[C@H]2C(=O)N[C@@H](Cc2c[nH]c3ccccc23)C(=O)N[C@@H](CCN)C(=O)N[C@@H](Cc2cn(CC(=O)O)c3ccccc23)C(=O)N1C [Example 1003]
5 | 6.3 | CCCC[C@H]1C(=O)N(C)[C@@H](CCCC)C(=O)N[C@@H](CC(C)C)C(=O)N[C@H](C(=O)NCC(=O)N[C@@H](Cc2cn(CCOCCOCCOCCOCCOCCOCCOCCOCCOCCOCCOCCNC(=O)CC[C@H](NC(=O)CCCCCCCCCCCCCCCCC(=O)O)C(=O)O)nn2)C(=O)O)CSCC(=O)N[C@@H](Cc2ccc(O)cc2)C(=O)N(C)[C@@H](C)C(=O)N[C@@H](CC(N)=O)C(=O)N2CCC[C@H]2C(=O)N[C@@H](CNC(=O)OC)C(=O)N[C@@H](CC(C)C)C(=O)N2C[C@H](O)C[C@H]2C(=O)N[C@@H](Cc2c[nH]c3ccccc23)C(=O)N[C@@H](CCNC(=O)OC)C(=O)N[C@@H](CC2=CC(CC(=O)O)c3ccccc32)C(=O)N1C (some centres unmarked) [Example 1019]
6 | 34 | CCCC[C@H]1C(=O)N(C)[C@@H](CCCC)C(=O)N[C@@H](CC(C)C)C(=O)N[C@H](C(=O)NCC(=O)N[C@@H](Cc2cn(CCOCCOCCOCCOCCOCCOCCOCCOCCOCCOCCOCCNC(=O)CC[C@H](NC(=O)CCCCCCCCCCCCCCCCC(=O)OCc3oc(=O)oc3C)C(=O)O)nn2)C(=O)O)CSCC(=O)N[C@@H](Cc2ccc(O)cc2)C(=O)N(C)[C@@H](C)C(=O)N[C@@H](CC(N)=O)C(=O)N2CCC[C@H]2C(=O)N[C@@H](CNC(=O)OCC)C(=O)N[C@@H](CC(C)C)C(=O)N2C[C@H](O)C[C@H]2C(=O)N[C@@H](Cc2c[nH]c3ccccc23)C(=O)N[C@@H](CCN)C(=O)N[C@@H](Cc2cn(CC(=O)O)c3ccccc23)C(=O)N1C [Example 7016]
7 | 12 | CCCC[C@H]1C(=O)N(C)[C@@H](CCCC)C(=O)N[C@@H](CC(C)C)C(=O)N[C@H](C(=O)NCC(=O)N[C@@H](Cc2cn(CCOCCOCCOCCOCCOCCOCCOCCOCCOCCOCCOCCNC(=O)CC[C@H](NC(=O)CCCCCCCCCCCCCCCCC(=O)O)C(=O)O)nn2)C(=O)O)CSCC(=O)N[C@@H](Cc2ccc(O)cc2)C(=O)N(C)[C@@H](C)C(=O)N[C@@H](CC(N)=O)C(=O)N2CCC[C@H]2C(=O)N[C@@H](CNC(=O)OC)C(=O)N[C@@H](CC(C)C)C(=O)N2C[C@H](O)C[C@H]2C(=O)N[C@@H](Cc2c[nH]c3ccccc23)C(=O)N[C@@H](CCNC(=O)OCc2oc(=O)oc2C)C(=O)N[C@@H](Cc2cn(CC(=O)O)c3ccccc23)C(=O)N1C [Example 7005]
8 | 12 | CCCC[C@H]1C(=O)N(C)[C@@H](CCCC)C(=O)N[C@@H](CC(C)C)C(=O)N[C@H](C(=O)NCC(=O)N[C@@H](Cc2cn(CCOCCOCCOCCOCCOCCOCCOCCOCCOCCOCCOCCNC(=O)CC[C@H](NC(=O)CCCCCCCCCCCCCCCCC(=O)O)C(=O)O)nn2)C(=O)O)CSCC(=O)N[C@@H](Cc2ccc(O)cc2)C(=O)N(C)[C@@H](C)C(=O)N[C@@H](CC(N)=O)C(=O)N2CCC[C@H]2C(=O)N[C@@H](CNCC(O)C(O)C(O)C(O)C(O)CO)C(=O)N[C@@H](CC(C)C)C(=O)N2C[C@H](O)C[C@H]2C(=O)N[C@@H](Cc2c[nH]c3ccccc23)C(=O)N[C@@H](CCN)C(=O)N[C@@H](Cc2cn(CC(=O)O)c3ccccc23)C(=O)N1C (some centres unmarked) [Example 8001]
9 | 3.1 | CCCC[C@H]1C(=O)N(C)[C@@H](CCCC)C(=O)N[C@@H](CC(C)C)C(=O)N[C@H](C(=O)NCC(=O)N[C@@H](Cc2cn(CCOCCOCCOCCOCCOCCOCCOCCOCCOCCOCCOCCNC(=O)CC[C@H](NC(=O)CCCCCCCCCCCCCCCCC(=O)O)C(=O)O)nn2)C(=O)O)CSCC(=O)N[C@@H](Cc2ccc(O)cc2)C(=O)N(C)[C@@H](C)C(=O)N[C@@H](CC(N)=O)C(=O)N2CCC[C@H]2C(=O)N[C@@H](CNC(=O)OCC(C)C)C(=O)N[C@@H](CC(C)C)C(=O)N2C[C@H](O)C[C@H]2C(=O)N[C@@H](Cc2c[nH]c3ccccc23)C(=O)N[C@@H](CCN)C(=O)N[C@@H](CC2=CC(CC(=O)O)c3ccccc32)C(=O)N1C (some centres unmarked) [Example 1014]

Row | SMILES | IC50 [nM]
10 | C=C(CC[C@@H]1NC(=O)[C@H](Cc2c[nH]c3ccccc23)NC(=O)[C@@H]2C[C@@H](O)CN2C(=O)[C@H](CC(C)C)NC(=O)[C@H](CNC(=O)CC[C@@H](C)[C@H]2CC[C@H]3[C@@H]4[C@H](O)C[C@@H]5C[C@H](O)CC[C@]5(C)[C@H]4C[C@H](O)[C@]23C)NC(=O)[C@@H]2CCCN2C(=O)[C@H](CC(N)=O)NC(=O)[C@H](C)N(C)C(=O)[C@H](Cc2ccc(O)cc2)NC(=O)CSC[C@@H](C(=O)NCC(=O)N[C@@H](Cc2cn(CCOCCOCCOCCOCCOCCOCCOCCOCCOCCOCCOCCNC(=O)CC[C@H](NC(=O)CCCCCCCCCCCCCCCCC(=O)O)C(=O)O)nn2)C(=O)O)NC(=O)[C@H](CC(C)C)NC(=O)[C@H](CCCC)N(C)C(=O)[C@H](CCCC)N(C)C(=O)[C@H](Cc2cn(CC(=O)O)c3ccccc23)NC1=O)CC[C@@H](C)[C@H]1CC[C@H]2[C@@H]3[C@H](O)C[C@@H]4C[C@H](O)CC[C@]4(C)[C@H]3C[C@H](O)[C@]12C [Example 1004] | 200
11 | CCCC[C@H]1C(=O)N(C)[C@@H](CCCC)C(=O)N[C@@H](CC(C)C)C(=O)N[C@H](C(=O)NCC(=O)N[C@@H](Cc2cn(CCOCCOCCOCCOCCOCCOCCOCCOCCOCCOCCOCCNC(=O)CC[C@H](NC(=O)CCCCCCCCCCCCCCCCC(=O)O)C(=O)O)nn2)C(=O)O)CSCC(=O)N[C@@H](Cc2ccc(O)cc2)C(=O)N(C)[C@@H](C)C(=O)N[C@@H](CC(N)=O)C(=O)N2CCC[C@H]2C(=O)N[C@@H](CNC(=O)O[C@H]2CC[C@@]3(C)C(CC[C@H]4[C@@H]5CC[C@H]([C@H](C)CCCC(C)C)[C@@]5(C)CC[C@@H]43)C2)C(=O)N[C@@H](CC(C)C)C(=O)N2C[C@H](O)C[C@H]2C(=O)N[C@@H](Cc2c[nH]c3ccccc23)C(=O)N[C@@H](CC)C(=O)N[C@@H](CC2=CC(CC(=O)O)c3ccccc32)C(=O)N1C (some centres unmarked) [Example 1027] | 110
